Reference: the supplement of paper PMC10307832

Experiments:
Experiment in all cases: relative viability (nuclei count vs DMSO), 5 days (fraction); higher = more cells survive
[1] = compound: Cc1cnc(CNC(=O)c2c(=O)c3ccc(N4CCCN(C)CC4)nc3n3c2sc2ccccc23)cn1 [CX-5461]
Outline: (§1)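 Hoechst staining, done together with fixation and permeabilisation, marked nuclei for 4× imaging and MetaXpress counting. This followed 5 days without medium change after lung cancer cell lines, kept overnight at 37 °C in 1536-well plates, were pinned with five library-drug doses (not always all listed) spaced by √10 on vehicle-anchored plates. Viability is the ratio of treated-well to vehicle-well nuclei, expressed as a median across plates. Plates passed only at control CV below 25% with at least one doubling.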

[2] = compound: O=C(Nc1cc(C(F)(F)F)cc(C(F)(F)F)c1)c1cc(Cl)ccc1O [IMD-0354]
Outline: as §1

[3] = compound: Cc1cnc(CNC(=O)c2c(=O)c3ccc(N4CCCN(C)CC4)nc3n3c2sc2ccccc23)cn1 [CX-5461] + CC1(C)CCC(c2ccc(Cl)cc2)=C(CN2CCN(c3ccc(C(=O)NS(=O)(=O)c4ccc(N[C@H](CCN5CCOCC5)CSc5ccccc5)c(S(=O)(=O)C(F)(F)F)c4)cc3)CC2)C1 [Navitoclax] (partner 0.5 µM)
Outline: (§2)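 A single step with final 0.05% Triton X-100, 1% formaldehyde and 1 ug/ml Hoechst fixed the cells and stained nuclei 5 days after treatment. Lung cancer cell lines in 1536-well plates had been treated by pin tool the day after seeding with one drug alone or a fixed anchor-drug dose plus five library-drug doses (not always all listed) in √10 steps, and nuclei were counted on 4× images. Relative viability is the ratio of nuclei in treated wells to nuclei in vehicle wells, taken as the median of duplicate plates.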

[4] = compound: O=C(Nc1cc(C(F)(F)F)cc(C(F)(F)F)c1)c1cc(Cl)ccc1O [IMD-0354] + N=C(N)NC(=N)NCCc1ccccc1 [Phenformin] (partner 250 µM)
Outline: as §2

Cell Line	relative viability ([1]; 0.01 µM)	relative viability ([1]; 0.03162 µM)	relative viability ([1]; 0.1 µM)	relative viability ([1]; 0.3162 µM)	relative viability ([1]; 1 µM)	relative viability ([2]; 0.04 µM)	relative viability ([2]; 0.1265 µM)	relative viability ([2]; 0.4 µM)	relative viability ([2]; 1.265 µM)	relative viability ([2]; 4 µM)	relative viability ([3]; first compound 0.01 µM)	relative viability ([3]; first compound 0.03162 µM)	relative viability ([3]; first compound 0.1 µM)	relative viability ([3]; first compound 0.3162 µM)	relative viability ([3]; first compound 1 µM)	relative viability ([4]; first compound 0.04 µM)	relative viability ([4]; first compound 0.1265 µM)	relative viability ([4]; first compound 0.4 µM)	relative viability ([4]; first compound 1.265 µM)	relative viability ([4]; first compound 4 µM)
HCC-44	0.956	0.998	0.964	0.98	0.839	0.967	1.03	0.497	0.301	0.194	0.931	1.08	1.09	0.983	1.02	0.241	0.32	0.193	0.139	0.105
NCI-H596	0.989	1.15	0.968	1.09	0.683	0.989	1.16	0.799	0.834	0.426	0.928	1.01	1.18	0.98	1.02	0.852	0.748	0.547	0.898	0.318
H3255	1.02	0.94	0.921	0.609	0.909	0.911	1.01	0.621	0.601	0.362	0.626	0.484	0.533	0.273	0.397	0.338	0.364	0.345	0.288	0.332
NCI-H647	1.08	0.935	0.991	0.822	0.403	1.04	1.06	0.405	0.172	0.11	1.26	1.27	1.19	0.709	0.7	0.784	0.376	0.283	0.129	0.0531
NCI-H2023	1	0.903	–	0.648	0.0929	1.11	0.986	0.573	0.128	0.0998	1.01	1.03	–	0.908	0.152	0.446	0.409	0.223	0.109	0.147
NCI-H23	1.05	1.04	0.856	0.773	0.544	1.14	0.942	0.518	0.195	0.2	0.958	0.859	0.986	0.839	0.726	0.811	0.81	0.313	0.198	0.189
NCI-H2170	1.03	1.02	1.08	1	1.02	0.956	1.02	0.777	0.806	0.226	0.627	0.585	0.698	0.532	0.665	0.418	0.37	0.301	0.229	0.221
NCI-H1944	1	1.14	0.994	0.358	0.318	0.866	0.981	0.653	0.74	0.156	1.06	1.09	1.01	–	1.02	0.232	0.197	0.15	0.116	0.148
NCI-H520	1.14	1.02	1.09	0.666	0.578	1.05	0.93	0.545	0.589	0.226	1.09	0.891	1.05	1.05	0.793	0.738	0.51	0.299	0.168	0.194
A549	0.969	0.96	0.748	0.811	0.193	1.11	0.991	0.496	0.229	0.109	1.05	0.932	–	0.833	0.035	0.23	0.106	0.0873	0.03	0.0515
NCI-H460	1.05	0.97	0.725	0.93	0.128	1.02	1.01	0.379	0.106	0.0241	1.04	1.02	0.273	1.09	0.0167	0.514	0.365	0.103	0.0203	0.0155
EKVX	1.11	1.05	1.05	0.677	0.915	1	0.972	0.589	0.915	0.358	1.13	1.03	0.958	–	0.764	0.254	0.234	0.196	0.106	0.132
SK-MES-1	1.1	1.09	1.04	1.06	0.724	1.16	0.996	0.645	0.463	0.223	1.19	1.28	1.28	1.38	1.14	0.747	0.583	0.422	0.356	0.241
EPLC-272H	0.994	0.886	0.901	–	0.922	1.21	1.08	0.717	0.442	0.16	1.28	1.3	1.11	–	1.13	0.34	0.199	0.304	0.0841	0.0653
NCI-H1793	0.989	1.1	0.875	0.997	0.942	1.09	0.759	0.499	0.229	0.213	0.485	0.306	0.37	0.485	0.443	0.386	0.344	0.157	0.163	0.147
NCI-H2126	1	1.06	1.03	0.991	0.972	1.03	0.981	0.848	0.484	0.387	0.873	0.863	0.896	0.815	0.804	0.561	0.47	0.424	0.309	0.222
